The test deals with HMOX1 expression in H4 cell line. Nature of the test: HMOX1 gene expression by qRT-PCR in H4 cell line treated with 5-aza-2′-deoxycytidine. The following applies: normal H4 cell line, 10 μM for 3 days, normalized to GAPDH. The test is classed as cell-based, human. The method, then:
Human neuroglioblastoma cell line, H4 was cultured in a Dulbecco's modified Eagle medium containing 10% fetal bovine serum, 100 U/mL penicillin, 100 μg/mL streptomycin and 2 mM L-glutamine, and APP695-Swedish mutant (K595N/M596L)-expressing Alzheimer's disease model cell line, H4-sw was cultured in the H4 culture medium supplemented with 500 μg/mL geneticine.
Total RNAs were extracted from the cell line and the brain tissues using an RNeasy mini kit (Qiagen). The extraction method was performed according to the manufacturer's manual. The extracted total RNAs were quantified using a spectrophotometer, and RNA degradation was examined by electrophoresis in a 1% agarose gel.
For cDNA synthesis, Superscript II reverse transcriptase (Invitrogen) was used. 1 μg of total RNA and 50 ng of oligo dT were denatured at 70° C. for 10 minutes, and then a reaction mixture of 4 μA of 5×RT buffer, 2 μA of […], 4 μA of 2.5 mM dNTP mixture, 200 units of Superscript II reverse transcriptase, 10 units of RNase inhibitor was added thereto. 20 μA of the reaction mixture was reacted at 25° C. for 10 minutes, at 42° C. for 50 minutes, and at 95° C. for 5 minutes for cDNA synthesis. The product was diluted at 1:4, and 2 μA thereof was used as a template of qRT-PCR. […]
Background: In qPCR the cycle at which signal appears reflects the starting amount.

Regarding `Nc1ncn([C@H]2C[C@H](O)[C@@H](CO)O2)c(=O)n1` [5-aza-2′-deoxycytidine], the HMOX1 expression entry was “increased”.

For the origin of these results see patent publication US9133521B2, “Composition for diagnosing Alzheimer's disease using methylation status of HMOX1 gene and method for diagnosing Alzheimer's disease using the same” (Ewha University—Industry Collaboration Foundation, priority 2012, dated 2015).
